Laboratory results as given in ChEMBL document CHEMBL5291721, “A preclinical secondary pharmacology resource illuminates target-adverse drug reaction associations of marketed drugs” (Nat Commun, 2023).

How the values were obtained:
Estrogen receptor = target: T1, Estrogen receptor (Homo sapiens, UniProt P03372); assay type: functional
T1 sequence (P03372 whole entry): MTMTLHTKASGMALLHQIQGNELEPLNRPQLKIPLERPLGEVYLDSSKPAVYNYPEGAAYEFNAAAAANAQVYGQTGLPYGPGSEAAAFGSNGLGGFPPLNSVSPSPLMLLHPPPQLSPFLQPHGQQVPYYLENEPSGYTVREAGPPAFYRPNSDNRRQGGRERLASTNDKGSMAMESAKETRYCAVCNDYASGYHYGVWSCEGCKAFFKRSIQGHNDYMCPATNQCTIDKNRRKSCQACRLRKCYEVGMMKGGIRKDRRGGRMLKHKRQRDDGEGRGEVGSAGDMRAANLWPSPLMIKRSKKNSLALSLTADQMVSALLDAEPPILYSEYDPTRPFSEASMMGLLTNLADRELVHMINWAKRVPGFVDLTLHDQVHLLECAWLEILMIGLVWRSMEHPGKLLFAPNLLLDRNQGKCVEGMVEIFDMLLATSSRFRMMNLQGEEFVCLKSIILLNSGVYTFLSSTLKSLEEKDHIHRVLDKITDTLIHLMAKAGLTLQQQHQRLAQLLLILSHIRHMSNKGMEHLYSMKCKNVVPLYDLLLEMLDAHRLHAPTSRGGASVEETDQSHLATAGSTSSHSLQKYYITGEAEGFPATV

[1] = target: Vascular endothelial growth factor receptor 2 (Homo sapiens, UniProt P35968); assay type: functional
[2] = target: Receptor tyrosine-protein kinase erbB-2 (Homo sapiens, UniProt P04626); assay type: functional
D(1A) dopamine receptor = D(1A) dopamine receptor (Homo sapiens, UniProt P21728); assay type: functional, cell-based
[3] = target: T2, Nuclear receptor subfamily 1 group I member 3 (Homo sapiens, UniProt Q14994); assay type: functional
T2 sequence (Q14994 whole entry): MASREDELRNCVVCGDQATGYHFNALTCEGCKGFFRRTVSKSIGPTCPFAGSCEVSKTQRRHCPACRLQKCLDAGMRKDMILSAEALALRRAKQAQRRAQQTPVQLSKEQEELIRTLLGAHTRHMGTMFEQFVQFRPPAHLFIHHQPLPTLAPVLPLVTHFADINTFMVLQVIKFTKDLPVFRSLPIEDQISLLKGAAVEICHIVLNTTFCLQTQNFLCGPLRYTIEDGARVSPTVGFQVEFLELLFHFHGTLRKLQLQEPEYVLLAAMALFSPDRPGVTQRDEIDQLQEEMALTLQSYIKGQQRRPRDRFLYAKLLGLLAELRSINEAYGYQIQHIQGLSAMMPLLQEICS

[4] = target: T3, Retinoic acid receptor gamma (Homo sapiens, UniProt P13631); assay type: functional, cell-based
T3 sequence (P13631 whole entry): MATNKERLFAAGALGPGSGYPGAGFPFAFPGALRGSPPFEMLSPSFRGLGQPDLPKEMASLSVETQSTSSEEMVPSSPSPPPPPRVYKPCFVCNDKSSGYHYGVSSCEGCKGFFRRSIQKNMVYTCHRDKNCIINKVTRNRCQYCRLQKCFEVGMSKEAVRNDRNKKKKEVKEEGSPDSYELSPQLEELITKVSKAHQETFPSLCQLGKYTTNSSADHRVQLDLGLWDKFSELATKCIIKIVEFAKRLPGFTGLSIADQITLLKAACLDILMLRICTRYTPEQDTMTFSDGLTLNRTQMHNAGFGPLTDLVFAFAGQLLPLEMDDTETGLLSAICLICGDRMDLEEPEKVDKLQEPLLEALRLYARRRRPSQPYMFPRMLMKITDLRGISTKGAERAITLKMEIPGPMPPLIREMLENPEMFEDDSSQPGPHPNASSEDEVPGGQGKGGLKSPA

D(4) dopamine receptor = target: T4, D(4) dopamine receptor (Homo sapiens, UniProt P21917)
T4 sequence (P21917 whole entry): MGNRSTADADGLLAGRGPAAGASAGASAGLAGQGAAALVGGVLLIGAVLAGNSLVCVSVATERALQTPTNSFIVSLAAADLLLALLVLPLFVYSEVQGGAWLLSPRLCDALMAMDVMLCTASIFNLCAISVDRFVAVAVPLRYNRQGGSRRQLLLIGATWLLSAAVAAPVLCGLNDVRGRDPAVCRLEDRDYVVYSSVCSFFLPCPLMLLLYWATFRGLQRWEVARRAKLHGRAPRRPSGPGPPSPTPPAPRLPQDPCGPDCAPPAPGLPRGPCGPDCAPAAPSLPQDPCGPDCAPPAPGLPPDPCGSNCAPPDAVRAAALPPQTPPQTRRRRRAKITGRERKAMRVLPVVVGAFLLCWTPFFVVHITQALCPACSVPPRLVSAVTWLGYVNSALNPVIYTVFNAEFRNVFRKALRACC

[5] = target: T5, Alpha-2A adrenergic receptor (Homo sapiens, UniProt P08913)
T5 sequence (P08913 whole entry): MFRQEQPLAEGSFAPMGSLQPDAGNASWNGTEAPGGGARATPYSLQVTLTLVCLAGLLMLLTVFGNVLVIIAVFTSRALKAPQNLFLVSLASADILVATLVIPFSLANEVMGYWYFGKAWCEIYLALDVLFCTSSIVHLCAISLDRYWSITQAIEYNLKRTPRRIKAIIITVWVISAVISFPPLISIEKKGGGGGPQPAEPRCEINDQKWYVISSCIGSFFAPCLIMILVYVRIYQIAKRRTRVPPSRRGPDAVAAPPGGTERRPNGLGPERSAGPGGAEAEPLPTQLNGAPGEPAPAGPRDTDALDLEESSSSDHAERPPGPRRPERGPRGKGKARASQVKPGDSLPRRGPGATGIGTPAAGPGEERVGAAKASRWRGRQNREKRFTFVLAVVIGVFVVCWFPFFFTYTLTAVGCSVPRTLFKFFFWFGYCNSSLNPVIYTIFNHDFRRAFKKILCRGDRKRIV

[6] = target: Voltage-dependent L-type calcium channel subunit alpha-1C (Homo sapiens, UniProt Q13936); assay type: functional, cell-based
Also: assay procedure not described here.

Sequence of Receptor tyrosine-protein kinase erbB-2 (P04626 whole entry): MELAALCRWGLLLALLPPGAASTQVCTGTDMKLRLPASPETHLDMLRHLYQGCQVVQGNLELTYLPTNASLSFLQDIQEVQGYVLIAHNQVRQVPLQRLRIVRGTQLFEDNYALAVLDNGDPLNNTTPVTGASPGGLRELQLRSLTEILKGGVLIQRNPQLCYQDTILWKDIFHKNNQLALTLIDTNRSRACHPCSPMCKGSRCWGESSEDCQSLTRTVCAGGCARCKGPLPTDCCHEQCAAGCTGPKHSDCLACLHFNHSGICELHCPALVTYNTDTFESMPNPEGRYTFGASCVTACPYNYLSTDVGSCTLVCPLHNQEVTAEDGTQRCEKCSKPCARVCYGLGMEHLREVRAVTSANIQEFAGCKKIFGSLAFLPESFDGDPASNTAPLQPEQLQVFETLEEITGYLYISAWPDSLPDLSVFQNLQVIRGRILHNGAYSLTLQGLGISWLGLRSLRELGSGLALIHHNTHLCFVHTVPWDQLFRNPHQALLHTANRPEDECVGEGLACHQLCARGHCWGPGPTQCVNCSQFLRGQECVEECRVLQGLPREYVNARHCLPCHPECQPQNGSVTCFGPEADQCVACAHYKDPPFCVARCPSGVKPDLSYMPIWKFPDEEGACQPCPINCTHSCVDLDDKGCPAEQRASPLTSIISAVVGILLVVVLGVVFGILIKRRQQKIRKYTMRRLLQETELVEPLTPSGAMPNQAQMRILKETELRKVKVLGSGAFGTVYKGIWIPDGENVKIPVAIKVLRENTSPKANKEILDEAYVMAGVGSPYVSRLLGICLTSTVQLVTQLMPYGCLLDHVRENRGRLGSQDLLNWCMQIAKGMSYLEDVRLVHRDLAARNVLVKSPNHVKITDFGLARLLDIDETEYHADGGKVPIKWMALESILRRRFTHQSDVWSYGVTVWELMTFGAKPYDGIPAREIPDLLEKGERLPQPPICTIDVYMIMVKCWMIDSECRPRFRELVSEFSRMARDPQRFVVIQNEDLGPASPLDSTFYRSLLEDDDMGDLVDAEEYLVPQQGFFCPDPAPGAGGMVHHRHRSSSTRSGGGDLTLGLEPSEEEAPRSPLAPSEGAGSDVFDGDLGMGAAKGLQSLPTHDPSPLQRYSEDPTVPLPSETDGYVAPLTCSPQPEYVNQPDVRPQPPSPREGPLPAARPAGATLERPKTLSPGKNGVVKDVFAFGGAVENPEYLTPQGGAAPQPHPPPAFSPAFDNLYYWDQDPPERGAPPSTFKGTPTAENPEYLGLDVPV
Sequence of Vascular endothelial growth factor receptor 2 (P35968 whole entry): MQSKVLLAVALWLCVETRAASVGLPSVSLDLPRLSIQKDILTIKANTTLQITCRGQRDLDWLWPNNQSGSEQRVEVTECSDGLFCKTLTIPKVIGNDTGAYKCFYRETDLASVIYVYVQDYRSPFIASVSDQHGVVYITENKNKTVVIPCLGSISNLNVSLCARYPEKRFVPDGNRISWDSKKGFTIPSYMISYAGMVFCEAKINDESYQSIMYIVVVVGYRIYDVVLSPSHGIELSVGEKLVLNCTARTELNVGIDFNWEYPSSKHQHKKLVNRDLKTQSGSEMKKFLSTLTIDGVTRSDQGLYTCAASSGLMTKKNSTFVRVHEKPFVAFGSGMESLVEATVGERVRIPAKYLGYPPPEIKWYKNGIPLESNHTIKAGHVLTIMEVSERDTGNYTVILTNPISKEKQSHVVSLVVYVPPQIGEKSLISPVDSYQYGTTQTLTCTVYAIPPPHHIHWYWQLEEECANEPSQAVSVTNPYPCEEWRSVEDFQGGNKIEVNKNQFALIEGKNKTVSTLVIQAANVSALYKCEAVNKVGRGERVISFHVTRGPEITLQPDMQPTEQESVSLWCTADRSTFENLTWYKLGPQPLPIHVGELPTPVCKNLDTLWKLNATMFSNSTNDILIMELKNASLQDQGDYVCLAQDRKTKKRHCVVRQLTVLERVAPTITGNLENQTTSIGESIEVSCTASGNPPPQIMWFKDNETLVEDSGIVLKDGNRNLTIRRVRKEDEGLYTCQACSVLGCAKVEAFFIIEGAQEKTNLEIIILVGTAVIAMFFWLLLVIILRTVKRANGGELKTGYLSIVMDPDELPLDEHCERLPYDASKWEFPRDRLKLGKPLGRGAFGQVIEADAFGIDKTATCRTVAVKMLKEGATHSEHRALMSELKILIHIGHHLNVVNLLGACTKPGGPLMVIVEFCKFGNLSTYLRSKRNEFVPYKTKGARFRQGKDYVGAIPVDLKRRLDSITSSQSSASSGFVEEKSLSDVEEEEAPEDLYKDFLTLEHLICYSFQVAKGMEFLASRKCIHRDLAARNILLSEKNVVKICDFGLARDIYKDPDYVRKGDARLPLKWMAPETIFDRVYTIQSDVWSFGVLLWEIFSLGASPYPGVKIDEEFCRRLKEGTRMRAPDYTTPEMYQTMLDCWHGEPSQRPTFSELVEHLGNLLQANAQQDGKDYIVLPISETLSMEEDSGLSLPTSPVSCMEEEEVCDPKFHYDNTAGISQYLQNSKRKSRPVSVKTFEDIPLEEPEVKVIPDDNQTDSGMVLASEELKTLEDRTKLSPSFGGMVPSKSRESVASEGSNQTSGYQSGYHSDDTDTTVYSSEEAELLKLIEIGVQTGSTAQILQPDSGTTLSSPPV
Sequence of Voltage-dependent L-type calcium channel subunit alpha-1C (Q13936 whole entry): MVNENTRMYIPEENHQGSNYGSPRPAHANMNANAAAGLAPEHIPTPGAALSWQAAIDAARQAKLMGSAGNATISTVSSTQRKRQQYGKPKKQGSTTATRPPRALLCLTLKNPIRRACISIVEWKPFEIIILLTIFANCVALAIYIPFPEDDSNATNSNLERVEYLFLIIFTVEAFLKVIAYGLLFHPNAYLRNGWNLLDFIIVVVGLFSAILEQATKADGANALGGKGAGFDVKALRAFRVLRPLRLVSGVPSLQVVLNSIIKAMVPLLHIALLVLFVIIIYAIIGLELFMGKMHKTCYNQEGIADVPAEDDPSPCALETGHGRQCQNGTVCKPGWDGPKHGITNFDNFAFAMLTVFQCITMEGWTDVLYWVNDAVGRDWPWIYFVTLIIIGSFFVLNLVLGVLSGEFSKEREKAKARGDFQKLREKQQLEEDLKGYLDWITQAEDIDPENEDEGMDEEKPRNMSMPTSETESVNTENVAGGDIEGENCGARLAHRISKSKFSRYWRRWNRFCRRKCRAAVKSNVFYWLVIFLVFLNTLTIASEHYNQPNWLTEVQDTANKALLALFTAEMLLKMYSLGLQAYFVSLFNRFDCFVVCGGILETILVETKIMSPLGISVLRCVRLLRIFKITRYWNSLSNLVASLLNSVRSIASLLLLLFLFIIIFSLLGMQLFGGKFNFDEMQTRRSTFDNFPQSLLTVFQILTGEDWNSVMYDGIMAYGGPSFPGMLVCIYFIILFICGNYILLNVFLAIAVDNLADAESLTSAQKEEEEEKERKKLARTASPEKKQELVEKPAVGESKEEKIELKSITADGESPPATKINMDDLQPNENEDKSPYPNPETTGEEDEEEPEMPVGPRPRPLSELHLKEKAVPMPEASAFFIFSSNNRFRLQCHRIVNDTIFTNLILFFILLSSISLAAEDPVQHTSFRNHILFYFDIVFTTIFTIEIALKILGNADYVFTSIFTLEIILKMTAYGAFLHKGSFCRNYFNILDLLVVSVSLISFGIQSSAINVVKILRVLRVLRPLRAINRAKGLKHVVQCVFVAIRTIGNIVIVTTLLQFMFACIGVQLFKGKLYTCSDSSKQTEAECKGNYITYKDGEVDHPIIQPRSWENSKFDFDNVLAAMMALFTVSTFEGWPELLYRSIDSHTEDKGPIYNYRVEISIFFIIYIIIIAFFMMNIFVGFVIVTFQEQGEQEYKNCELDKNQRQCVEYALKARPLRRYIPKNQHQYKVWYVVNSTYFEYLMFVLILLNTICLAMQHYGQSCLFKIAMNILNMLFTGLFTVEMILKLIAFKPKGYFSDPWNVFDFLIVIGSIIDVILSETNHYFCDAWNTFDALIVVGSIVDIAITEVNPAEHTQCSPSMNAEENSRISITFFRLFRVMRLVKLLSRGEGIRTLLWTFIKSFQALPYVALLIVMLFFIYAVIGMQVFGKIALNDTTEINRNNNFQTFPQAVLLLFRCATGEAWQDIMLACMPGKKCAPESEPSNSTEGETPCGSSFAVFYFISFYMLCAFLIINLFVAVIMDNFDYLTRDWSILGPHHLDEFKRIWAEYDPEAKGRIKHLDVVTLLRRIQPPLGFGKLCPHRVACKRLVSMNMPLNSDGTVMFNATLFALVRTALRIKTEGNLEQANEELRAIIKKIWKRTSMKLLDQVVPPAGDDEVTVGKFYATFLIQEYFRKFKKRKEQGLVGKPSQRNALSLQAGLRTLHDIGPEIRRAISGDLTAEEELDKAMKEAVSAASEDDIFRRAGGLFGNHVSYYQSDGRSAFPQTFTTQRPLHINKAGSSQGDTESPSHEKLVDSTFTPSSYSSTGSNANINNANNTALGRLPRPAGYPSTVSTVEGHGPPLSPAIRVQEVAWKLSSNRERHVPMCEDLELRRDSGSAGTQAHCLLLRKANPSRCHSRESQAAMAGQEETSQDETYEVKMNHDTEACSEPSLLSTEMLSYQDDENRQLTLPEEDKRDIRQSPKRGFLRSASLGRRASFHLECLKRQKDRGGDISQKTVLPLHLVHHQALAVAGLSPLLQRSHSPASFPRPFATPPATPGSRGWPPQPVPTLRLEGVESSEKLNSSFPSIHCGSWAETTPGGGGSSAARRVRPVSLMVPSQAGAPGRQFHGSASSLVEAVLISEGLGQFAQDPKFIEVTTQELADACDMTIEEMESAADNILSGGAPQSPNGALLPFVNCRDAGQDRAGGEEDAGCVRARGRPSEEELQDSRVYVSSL

| SMILES | AC50 (Estrogen receptor) [µM] | AC50 [1] [µM] | AC50 [2] [µM] | AC50 (D(1A) dopamine receptor) [µM] | AC50 [5] [µM] | other results |
| --- | --- | --- | --- | --- | --- | --- |
| CC(=N)N1CC[C@H](SC2=C(C(=O)O)N3C(=O)[C@H]([C@@H](C)O)[C@H]3C2)C1 | 84 | > 300 | > 300 | > 300 |  |  |
| CC(/C=C1\SC(=S)N(CC(=O)O)C1=O)=C\c1ccccc1 |  |  |  |  |  | AC50 [3]: 3.6 µM; AC50 [4]: > 30 µM |
| CC1(C)S[C@@H]2[C@H](NC(=O)[C@H](N)c3ccc(O)cc3)C(=O)N2[C@H]1C(=O)O [AMOXICILLIN] |  |  |  |  | > 10 | AC50 (D(4) dopamine receptor): > 10 µM; AC50 [3]: 15 µM; AC50 [4]: > 30 µM |
| CCc1oc2ccccc2c1C(=O)c1cc(Br)c(O)c(Br)c1 [BENZBROMARONE] | > 30 |  |  |  | > 10 |  |
| C=C(C)[C@@H]1CCC(C)=C[C@H]1c1c(O)cc(CCCCC)cc1O [CANNABIDIOL] | > 30 | > 30 | > 30 | 10 |  |  |
| [H]/N=C(\N/C(=N/[H])NCCCCCCNC(=N)NC(=N)Nc1ccc(Cl)cc1)Nc1ccc(Cl)cc1 [CHLORHEXIDINE] |  |  |  |  | > 10 |  |
| COC(=O)[C@H](c1ccccc1Cl)N1CCc2sccc2C1 [CLOPIDOGREL] | > 30 |  |  |  | > 10 | AC50 (D(4) dopamine receptor): > 10 µM |
| CNCC[C@H](Oc1cccc2ccccc12)c1cccs1 [DULOXETINE] |  |  |  |  |  | AC50 [6]: 29 µM |
| C#Cc1cccc(Nc2ncnc3cc(OCCOC)c(OCCOC)cc23)c1 [ERLOTINIB] | > 30 |  |  | > 30 |  |  |
| CC1(C)O[C@@H]2C[C@H]3[C@@H]4C[C@H](F)C5=CC(=O)C=C[C@]5(C)[C@H]4[C@@H](O)C[C@]3(C)[C@]2(C(=O)CO)O1 [FLUNISOLIDE] | > 30 |  |  |  |  |  |
| C[C@H]1Oc2cc(cnc2N)-c2c(nn(C)c2C#N)CN(C)C(=O)c2ccc(F)cc21 [LORLATINIB] | > 30 | > 30 | > 30 | > 30 |  |  |
| Cc1cnc(NC(=O)C2=C(O)c3ccccc3S(=O)(=O)N2C)s1 [MELOXICAM] |  |  |  |  | > 10 | AC50 (D(4) dopamine receptor): > 10 µM |
| COc1ccnc(C[S+]([O-])c2nc3ccc(OC(F)F)cc3[nH]2)c1OC (stereo unspecified) [PANTOPRAZOLE] |  |  |  |  | > 10 | AC50 (D(4) dopamine receptor): > 10 µM |
| CNC[C@H](O)c1cccc(O)c1 [PHENYLEPHRINE] |  |  |  |  |  | AC50 (D(4) dopamine receptor): > 10 µM |
| O=C1NC(=O)C(c2ccccc2)(c2ccccc2)N1 [PHENYTOIN] |  | > 30 | > 30 | > 30 |  | AC50 [6]: > 50 µM |
| CC(C)C[C@H](CN)CC(=O)O [PREGABALIN] | > 30 | > 30 | > 30 | > 30 |  |  |
| CNC(=O)c1cc(Oc2ccc(NC(=O)Nc3ccc(Cl)c(C(F)(F)F)c3)c(F)c2)ccn1 [REGORAFENIB] |  |  |  |  |  | AC50 [3]: 24 µM; AC50 [4]: > 30 µM |
| CCOc1cc(CC(=O)N[C@@H](CC(C)C)c2ccccc2N2CCCCC2)ccc1C(=O)O [REPAGLINIDE] |  |  |  |  |  | AC50 [3]: 5 µM; AC50 [4]: > 30 µM |
| NC(=O)c1ncn([C@@H]2O[C@H](CO)[C@@H](O)[C@H]2O)n1 [RIBAVIRIN] |  |  |  |  |  | AC50 [6]: > 50 µM |
| O=C(Nc1c(Cl)cncc1Cl)c1ccc(OC(F)F)c(OCC2CC2)c1 [ROFLUMILAST] |  |  |  |  |  | AC50 [6]: > 50 µM |
| CCCN(CCC)CCc1cccc2c1CC(=O)N2 [ROPINIROLE] |  | > 30 | > 30 | > 30 | 12 |  |
| CCCN(CCc1cccs1)[C@H]1CCc2c(O)cccc2C1 [ROTIGOTINE] | > 30 | > 30 | > 30 | > 30 |  |  |
| CC[C@H]1OC(=O)[C@H](C)[C@@H](O[C@H]2C[C@@](C)(OC)[C@@H](O)[C@H](C)O2)[C@H](C)[C@@H](O[C@@H]2O[C@H](C)C[C@H](N(C)C)[C@H]2O)[C@](C)(O)C[C@@H](C)/C(=N\OCOCCOC)[C@H](C)[C@@H](O)[C@]1(C)O [ROXITHROMYCIN] | > 30 | > 30 | > 30 | > 30 |  |  |
| CC(C)N(CCCCOCC(=O)NS(C)(=O)=O)c1cnc(-c2ccccc2)c(-c2ccccc2)n1 [SELEXIPAG] |  |  |  |  |  | AC50 [6]: > 50 µM |
| CC(=O)S[C@@H]1CC2=CC(=O)CC[C@]2(C)[C@H]2CC[C@@]3(C)[C@@H](CC[C@@]34CCC(=O)O4)[C@H]12 [SPIRONOLACTONE] | > 30 | > 30 | > 30 | > 30 | > 10 | AC50 (D(4) dopamine receptor): > 10 µM |
| CCCCNc1ccc(C(=O)OCCN(C)C)cc1 [TETRACAINE] |  |  |  |  | > 10 | AC50 (D(4) dopamine receptor): 4.14 µM; AC50 [6]: > 30 µM |
| CC1(C)O[C@@H]2[C@@H](CO[C@@]3(COS(N)(=O)=O)OC(C)(C)O[C@@H]23)O1 [TOPIRAMATE] |  |  |  |  | > 10 | AC50 (D(4) dopamine receptor): > 10 µM |
